Source: PubChem BioAssay (NCI)
Values joined by “and” are separate entries in the source; they are usually repeats but may differ in a detail not shown here. Equal values may be shown once.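 These data come from cells grown in 96-well plates and exposed to compound for 48 hours at five concentrations. The concentration for 50% growth inhibition is given as GI50. TGI is the concentration that stops growth completely.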

Legend:
Test in all cases: growth of human tumour cells (NCI), 48 h
[1] = test system: NCI-H460 lung
[2] = test system: OVCAR-5 ovarian
[3] = test system: SNB-75 CNS
[4] = test system: M14 melanoma
[5] = test system: HCC-2998 colon
[6] = test system: K-562 leukemia
[7] = test system: ACHN renal
[8] = test system: NCI-H23 lung
[9] = test system: HCT-15 colon
[10] = test system: SF-295 CNS

| SMILES | GI50 [1] | TGI [1] | GI50 [2] | TGI [2] | GI50 [3] | TGI [3] | GI50 [4] | TGI [4] | GI50 [5] | TGI [5] | GI50 [6] | TGI [6] | GI50 [7] | TGI [7] | GI50 [8] | TGI [8] | GI50 [9] | TGI [9] | GI50 [10] | TGI [10] |
| --- | --- | --- | --- | --- | --- | --- | --- | --- | --- | --- | --- | --- | --- | --- | --- | --- | --- | --- | --- | --- |
| Cc1ccc2c(n1)C(=O)C(Cl)=C(Nc1ccc(N3CCN(C)CC3)cc1)C2=O | 3.74 µM | 15.7 µM | 1.82 µM | 3.34 µM | 2.11 µM | 8.53 µM | 1.84 µM | 3.32 µM | 4.54 µM | 17.5 µM | 2.72 µM | 8.92 µM | 1.75 µM | 3.13 µM | 1.79 µM | 3.75 µM | 1.84 µM | 3.93 µM | 18 µM | 32.3 µM |
| Cc1cc(C(=O)N2CCN(C)CC2)c2c(=O)n(-c3ccccc3)c(=O)n(CC(O)CN3CCN(c4ncccn4)CC3)c2n1 (stereo unspecified) | > 100 µM | > 100 µM | > 100 µM | > 100 µM | > 100 µM | > 100 µM | > 100 µM | > 100 µM | > 100 µM | > 100 µM | > 100 µM | > 100 µM | > 100 µM | > 100 µM | > 100 µM | > 100 µM | > 100 µM | > 100 µM | > 100 µM | > 100 µM |
| Cc1cc(Br)c2nsnc2c1[N+](=O)[O-] | 3.15 µM | 10.7 µM | 4.55 µM | 15.9 µM | 3.46 µM | 15.4 µM | 1.77 µM | 3.32 µM | 2.07 µM | 4.44 µM | 0.968 µM | – | 4.39 µM | 15.5 µM | 1.9 µM | 3.9 µM | 4.28 µM | 18.4 µM | 2.96 µM | 12.1 µM |
| COc1ccc(Oc2nc(Nc3ccc(N4CCOCC4)cc3)ncc2NC(=O)Nc2cc(OC)cc(OC)c2)cc1 | 1.31 µM | 5.72 µM | 11.6 µM | > 33.3 µM | 1.65 µM | 18.2 µM | 3.02 µM | 14.1 µM | 2.11 µM | 7.16 µM | 4.66 µM | > 33.3 µM | 4.23 µM | 20.4 µM | 2.69 µM | 23.4 µM | 15.4 µM | > 33.3 µM | 4.19 µM | 12.7 µM |
| Oc1[nH]c2ccc(Cl)cc2c1/C=c1/ccc2c(c1)N=C(c1ccc(C(F)(F)F)cc1)N=2 | 1.88 µM | 3.82 µM | 3.1 µM | 12.3 µM | 2.03 µM | 7.51 µM | 1.67 µM | 3.34 µM | 2.1 µM | 4.81 µM | 2.6 µM | 7.73 µM | 3.24 µM | 15.4 µM | 3.08 µM | 13.6 µM | 2.64 µM | 8.91 µM | 1.87 µM | 5.04 µM |
| Cc1nn2c(=O)n(-c3cccc(-n4nnc5c(-c6ccccc6)c(C)nn5c4=O)c3C)nnc2c1-c1ccccc1 | – | 50.1 µM | – | > 100 µM | – | > 100 µM | – | 29.6 µM | – | 55.8 µM | – | > 100 µM | – | 76.7 µM | – | > 100 µM | – | 63.8 µM | – | > 100 µM |
| O=C1NC(=O)C(N2CCc3ccccc32)=C1c1ccc(Cl)cc1 | > 25 µM | > 25 µM | > 25 µM | > 25 µM | > 25 µM | > 25 µM | > 25 µM | > 25 µM | > 25 µM | > 25 µM | > 25 µM | > 25 µM | > 25 µM | > 25 µM | > 11.4 µM | > 25 µM | > 25 µM | > 25 µM | > 25 µM | > 25 µM |
| CC(C)(C)C1CCC(CI)(N=[N+]=[N-])CC1 (stereo unspecified) | – | > 100 µM | – | > 100 µM | – | > 100 µM | – | > 100 µM | – | > 100 µM | – | > 100 µM | – | > 100 µM | – | > 100 µM | – | > 100 µM | – | > 100 µM |
| CCN1CCN(CC(=O)Nc2nc3ccc(NCc4ccc(C)cc4)cc3s2)CC1 | 2.12 µM | 7.71 µM | 5.63 µM | 13.4 µM | 2.69 µM | 9.42 µM | 1.14 µM | 2.19 µM | 6.5 µM | 14.6 µM | 0.949 µM | 2.09 µM | 6.06 µM | 12.3 µM | 5.91 µM | 13.9 µM | 1.04 µM | 2.47 µM | 2.4 µM | 9.06 µM |
| Cc1cc2oc(=O)c(Cl)c(Cl)c2c(C)c1Cl | – | 59.9 µM | – | 27.8 µM | – | 25.2 µM | – | 22.4 µM | – | 14.1 µM | – | 4.39 µM | – | 23.3 µM | – | 39.7 µM | – | 14.3 µM | – | 31.9 µM |
| O=C1/C(=C\c2ccc([N+](=O)[O-])cc2)CS(=O)(=O)C/C1=C/c1ccc([N+](=O)[O-])cc1 | 0.256 µM | 2.48 µM | 0.126 µM | – | – | 53.2 µM | 0.131 µM | 0.331 µM and 2.51 µM | 11.3 µM | 25.6 µM | – | > 100 µM | 0.19 µM | 0.405 µM and 2.19 µM | 0.252 µM | 0.651 µM and 5.12 µM | 0.058 µM | 0.258 µM and 0.638 µM | 0.563 µM | 6.42 µM |
